Experimental data: patent US9937227B2, “Humanin, analogs and cancer treatment methods and uses thereof” (LOS ANGELES BIOMEDICAL RESEARCH INSTITUTE AT HARBOR-UCLA …, priority 2014, dated 2018)
Where two headings read alike, the source gives them in different places.

Experiments:
ovaries = assay type: in vivo; details: HNG 5 mg/kg/day IP or CP 100 mg/Kg single IP, day 14
Experimental: A mouse mammary cancer model was used which utilizes 4T1 cells transfected with the luciferase gene. Growth and size of 4T1 mammary tumors were detected by bioluminescence imaging (IVIS Luminia II, Perkin Elmer, Waltham, Mass.). Mice (n=5 to 7 per group) were inoculated with 1×10^6 4T1 cells into the right third mammary gland, and 7 days later they were left untreated or treated with HNG (5 mg/kg/day IP), CP (100 mg/Kg single IP) or HNG+CP for 14 days. Animals were sacrificed and both ovaries were removed from each mouse on day 14 after the start of treatment. Serial 5-micrometer sections were made. Every 5th section was examined and the number of primordial, primary, and secondary follicles counted (Kim S Y, et al., 2013; Bristol-Gould S K, et al., 2006; Roti Roti E C, et al., 2012). In addition, TUNEL staining for apoptotic cells and oocytes was quantified (Perez G I, et al., 1997; Ben-Aharon I, et al., 2010).

[1] = tested on: Ser727-phosphorylated STAT3; test: STAT3 phosphorylation in testis by western blot; assay type: in vivo, mouse; details: testis homogenates; single agent
Experimental: For the HN analog experiments, male mice were divided into seven groups (n=4-5 per group) and received one of the following treatments and sacrificed after 24 hours: 1) vehicle (control); 2) a single intra-peritoneal (IP) injection of HN peptide [HN, 40 mg/Kg body weight (BW)]; 3) a single IP injection of CP (CP, 200 mg/Kg BW); 4) IP injection of CP and HN (CP+HN); 5) a single IP injection of each HN analog (HNG 5 mg/Kg BW, HNG-F6A 5 mg/Kg BW, HN-S7A 40 mg/Kg BW, HN-C8P 40 mg/Kg BW, or HN-L12A 40 mg/Kg BW); 6) IP injection of CP and each HN analog (CP+HNG, HNG-F6A, HN-S7A, HN-C8P, or HN-L12A); and 7) IP injection of CP+HN+HN analog (HN-S7A, HN-C8P, or HN-L12A; to assess whether the analogs has enhancing or inhibitory effect on HN).
To facilitate testicular fixation by using a whole-body perfusion technique, all animals were injected with heparin (130 IU/100 g BW, IP) 15 min before a lethal injection of sodium pentobarbital (200 mg/kg BW, IP) (Lue Y H, et al., 1999). One testis was removed and weighed after perfusion with saline. Portions of testicular parenchyma were snap frozen in liquid nitrogen, and stored at −80 C for Western blotting. The other testis was fixed by vascular perfusion with Bouin's solution, and processed with routine paraffin embedding for in situ detection of apoptosis.
Western blotting was performed as described previously (Jia Y, et al., 2009). […]

sperm output = test: Cauda epididymal sperm count after multiple doses of CP; assay type: in vivo, mouse; details: 28 days; HNG 10 mg/kg BW daily SC; CP 150 mg/kg BW IP, 6 doses at 5-day intervals
Experimental: The objective of this study was to investigate whether HNG has protective effect on sperm output after multiple doses of CP in mice. Thirty adult male mice (C57BL/6J) were randomized into 4 groups: 1) 5 as control; 2) 5 received daily subcutaneously injection of HNG (10 mg/kg BW); 3) 10 were given 6 doses of CP (150 mg/kg BW) intraperitoneally at 5-day intervals; 4) 10 received both HNG and CP. All mice were killed at 28 days. Plasma HNG and IGF-1 levels were measured by ELISAs. The cauda epididymal sperm count was performed using a hemocytometer.

[2] = tested on: B16 murine melanoma cells; test: Metastatic lung tumors in mouse B16 melanoma model (Experiments 3 and 4); assay type: in vivo
Experimental: A total of 25 young adult mice (10-12 weeks) were randomly divided into 5 groups (n=5 per group). Five mice were used as control. Twenty mice were inoculated intravenously with B16 murine melanoma cells (2×10^5 cells/mouse). Among these 20 tumor-inoculated mice, 5 mice received no further treatment. After one week, the remaining 15 mice were divided into 3 groups and injected with: 1) HNG daily IP (5 mg/Kg body weight) for 2 weeks; 2) CP (200 mg/Kg body weight IP single injection); 3) combined CP with HNG treatment (same doses as above). All mice were sacrificed 3 weeks after tumor inoculation, and 2 weeks after HNG and/or CP treatment. The animals were sacrificed with 5% pentobarbital (200 mg/kg body weight) IP injection after which blood was collected from the right atrium of the heart. One of the testes from each mouse was immersed fixed in Bouin's solution, and the mice were perfused with saline and subsequently perfuse-fixed with 5% glutaraldehyde in 0.05 M cacodylate buffer (pH 7.4). The lungs were dissected out and post fixed in 5% glutaraldehyde solution for 24 hours and stored in cacodylate buffer at 4° C. for the subsequent tumor count (Lue, et al., 2010; Lue, et al., 2009).
Experiment 3 was repeated after inoculation of B16 melanoma tumor at week 1 and then treated with the following treatment starting at week 2 (n=5 mice per group): 1). No treatment; 2). HNG IP injections 5 mg/Kg daily; 3) CP 200 mg/Kg single IP injection; 4) HNG 5 mg/Kg/day+CP; 5). HNG IP injections 15 mg/Kg daily; and 6). HNG 15 mg/Kg/day+CP. All animals were euthanized and perfused with 4% paraformaldehyde at the end of week 3. Lungs and testes were collected and processed as in experiment 3. Methods
B16 melanoma tumors in the lung were quantified by counting the number of tumors on the surface of the lungs under stereomicroscopy (Collisson, et al., 2003; Craft, et al., 2005). The size of the tumor was measured using histomorphometry and expressed as average size of tumor. The appearance of the melanoma cells were reviewed and characterized by an expert pathologist.

In the case of `O=P1(N(CCCl)CCCl)NCCCO1` (stereo not drawn) [CP, cyclophosphamide monohydrate], the “ovarian follicles in representative sections” value (ovaries) is reported as “less secondary, but more atretic follicles”, the “STAT3 phosphorylation compared with control” value [1] is reported as “suppressed” and the epididymal sperm counts (sperm output) is reported as 0.5±0.1 ×10^6/mg. For the same molecule, the “germ cell apoptosis compared to control” value (male germ cells; early (I-VI) and late (IX-XIV) stages, EDS pre-treated) was “did not significantly increased”, the “germ cell apoptosis compared to control” value (male germ cells; early (I-VI) and late (IX-XIV) stages, no EDS, CP 70 mg/kg BW IP, 12 hours) was “significantly increased” and the “CP induced germ cell apoptosis in EDS pre-treated rats vs without EDS” value (male germ cells; early and late stages) was “significantly lower”. The “germ cell apoptosis compared to control” value (male germ cells; middle (VII-VIII) stages, no EDS, CP 70 mg/kg BW) was “did not increase”, the “number of metastatic tumors on the surface of the lungs vs non-treated tumor-bearing mice” value ([2]; Experiment 3, HNG 5 mg/Kg daily IP 2 weeks or CP 200 mg/Kg single IP) was “decreased number of tumors” and the “size of the melanoma metastasis on the surface of the lungs” value ([2]; Experiment 3, HNG 5 mg/Kg daily or CP 200 mg/Kg single IP) was “decreased number of tumors but also tumor size”. For the same molecule, the “number of lung tumors vs non-treated tumor-bearing mice” value ([2]; Experiment 4, HNG 5 mg/kg BW daily or CP 200 mg/Kg single IP) was “significantly decreased both the number and size of the tumors”, the “size of the lung tumors vs non-treated” value ([2]; Experiment 4, HNG 5 and 15 mg/kg BW, CP 200 mg/Kg) was “significantly decreased both the number and size of the tumors” and the “lung metastatic melanoma histology (differentiation of melanoma cells)” value ([2]; HNG 5 mg/kg BW, CP, or combination) was “minor differentiation”.
